Results taken from the METLIN SMRT retention time set (Domingo-Almenara et al. 2019).

Test: gradient 5% acetonitrile 3 min, to 50% in 2 min, to 85% in 15 min, held 3 min, 100 µL/min
Conditions: column: Zorbax Extend-C18 2.1 x 50 mm; eluents: water / acetonitrile, 0.1% formic acid
How it was run: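 Each retention time is based on an adduct peak selected computationally and verified by manual inspection. Measurements used HPLC–quadrupole time-of-flight mass spectrometry in positive and negative ionization mode on mixtures of ~100 pure standards. Chromatography ran on a Zorbax Extend-C18 column (2.1 × 50 mm, 1.8 μm) at 100 μL/min with water and acetonitrile, each containing 0.1% formic acid, and dead and dwell volumes of 40 μL and 900 μL.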

RP-LC retention time [s]	SMILES
775	c1ccc2c(-c3nc(C4CC4)no3)nnc(NC3CCCCC3)c2c1
650	CCc1cccc(NC(=O)N2CCC(n3cnnc3C)CC2)c1
798	CCN1C(=O)CCc2cc(NC(=O)Cc3ccc(OC)c(Cl)c3)ccc21
1100	O=C(NCc1ccc(F)c(Cl)c1)C1CCCN(c2nccnc2Sc2ccccc2)C1 (centres undefined)
1040	COC(=O)c1ccc(-c2nc3cnccn3c2Nc2ccc(C)c(Br)c2)cc1
1060	CC(C)Oc1ccc(-c2noc(Cn3cnc4c(oc5ccccc54)c3=O)n2)cc1
970	O=C(OCc1nc2ccccc2s1)c1ccc([N+](=O)[O-])s1
686	Cc1ccsc1C(=O)Nc1ccc2c(N3CCCCC3)ncnc2c1
1200	Cc1nc2c(sc3nc(-c4ccccc4)ccc32)c(=O)n1CC(=O)Nc1ccc(C(C)C)cc1
802	CN(C)CCCn1c2c3ccccc3ccc2c2oc(=O)c3ccccc3c21
958	CC(C)NC(=O)N1CCCC(c2cccc(C(=O)NCc3cccc(C(F)(F)F)c3)c2)C1 (centres undefined)
685	CCOC(=O)CCNC(=O)N1CCC(N2C(=O)C3(CCCC3)C2c2scnc2C)CC1 (centres undefined)
765	CCN1C(=O)c2cccnc2Sc2cc(CNC(=O)c3ccc(F)cc3)ccc21
891	COc1ccc(-n2ccn3cc(-c4ccc(Br)cc4)nc3c2=O)cc1
637	Cc1ccc(CNC(=O)c2ccc3ncnc(N4CCCCC4)c3c2)o1
614	CN1CCCCCCN(C(=O)c2cc(CN3CCOCC3)on2)[C@H]2CCC[C@H]2C1=O
764	CC(C)N(C(=O)Cn1c(C2CC(=O)N(Cc3ccccc3)C2)nc2ccccc21)C(C)C (centres undefined)

RP-LC retention time [s]	SMILES
952	CCS(=O)(=O)N1CCC(F)(c2nc(-c3ccccc3)no2)CC1
724	Cn1nc2n(c1=O)CCC(NC(=O)c1n[nH]c3c1CC(C(C)(C)C)CC3)CC2 (centres undefined)
629	Cc1cnc(-c2ccccc2)n1CCNS(=O)(=O)c1ccccc1
711	CC(C)C(=O)NCCc1csc(C2CCCN(C(=O)C3CCC3)C2)n1 (centres undefined)
689	CCC(Sc1nc2ccccc2[nH]1)C(=O)Nc1nnc(C)s1 (centres undefined)
631	Cc1ccc(S(=O)(=O)CCc2noc(C(=O)NCCN3CCC(C)CC3)n2)cc1
737	O=C(Nc1ccccc1F)N1CCN(Cc2nc3cc(Cl)ccc3o2)CC1
566	O=C(NCC#CCN1CCc2ccccc2C1)NC1CCCCC1
774	CCOc1ccccc1CNC(=O)C1CCCN(c2nnc(C)c3c(C)n(-c4ccccc4)nc23)C1 (centres undefined)
844	O=C(NCc1cc(F)cc(F)c1)C1CCN(c2nnc(-c3ccccc3)o2)CC1
921	CC1(C)O[C@@H]2C[C@H]3[C@@H]4C[C@H](F)C5=CC(=O)C=C[C@]5(C)[C@@]4(F)[C@@H](O)C[C@]3(C)[C@]2(C(=O)CO)O1
699	O=C(Cc1ccsc1)Nc1cccn2ncnc12
608	CC(C)NC(=O)Cn1cnc2nc(N3CCCC(C(=O)NC4CC4)C3)sc2c1=O (centres undefined)
614	O=C(c1cccc(N2CCNC(c3ccccc3)C2)n1)N1CCSCC1 (centres undefined)
595	CCCNC(=O)C(=O)NCC(c1ccc2c(c1)OCO2)N1CCOCC1 (centres undefined)
640	O=S(=O)(c1ccc2c(c1)-c1oncc1CO2)N1CCN(C2CCCCC2)CC1

The next lines start with the molecule.

SMILES	RP-LC retention time [s]
COc1cc(CNCCc2c[nH]c3ccccc23)ccc1OCc1ccc2c(c1)n(C)c(=O)n2C	670
O=S(=O)(c1cccc(-c2nnc(-c3ccccc3Br)o2)c1)N1CCOCC1	940
Cc1nc2nc(-c3ccc(C(C)(C)C)cc3)nn2c(C)c1CC(=O)N1CCN(CCO)CC1	657
O=C(NC1CCCC1)NC1CCN(c2ccccc2)C1=O (centres undefined)	726
CCOc1ccccc1NC(=O)N1CCc2nc[nH]c2C1	577
O=C(CSc1cc(-n2cccn2)ncn1)Nc1cccc(Cl)c1F	965
O=C(Nc1ccc(-c2nnc3n2CCCC3)cc1)C1CCCC1	648
COc1cc(-n2c(=O)c3ccccc3n(Cc3ccccc3C#N)c2=O)cc(OC)c1OC	805
O=C(NCCCn1nc(-c2ccncc2)ccc1=O)c1ccc2c(c1)OCO2	555
CCc1nnc(-c2cc(C)n(CC(=O)Nc3ccc(Cl)cc3C)c2C)o1	915
O=C(NCc1[nH]nc2ccccc12)C1CC(=O)N(c2cccc(Cl)c2)C1 (centres undefined)	743
CC(C)C(=O)N1CCc2ccccc2C1C(=O)N1CCN(c2ccc(F)cc2)CC1 (centres undefined)	930
Cc1ccc(-c2noc(-c3ccccc3S(=O)(=O)NC3CCCC3)n2)cc1	1300
O=C1Nc2ccc(S(=O)(=O)N3CCN(c4ccccn4)CC3)cc2C1=C1CCCC1	662
CC(C)Oc1ccc(CNC(=O)c2nc(N3CCOCC3)c3ccccc3n2)cc1	738
O=C(C1CCN(c2nccnc2Sc2ccccc2)CC1)N1CCOCC1	798
CCCNC(=O)C1CCCN(c2nc3ncn(CC(=O)Nc4ccccc4Cl)c(=O)c3s2)C1 (centres undefined)	738
COc1cccc(-c2nc(-c3ccc(S(=O)(=O)N4CCCCC4)cc3)no2)c1	1270
CN(C)CCNc1ccc(-c2nc(-c3cccc(F)c3)no2)cn1	678

SMILES	RP-LC retention time [s]
O=C(Cn1c(=O)c2cccn2c2ccc(F)cc21)N1CCOCC1	686
Cc1ccccc1Cn1cc(C(=O)O)c(S(=O)(=O)N2CCSCC2)n1	848
O=C1CCc2cc(S(=O)(=O)N3CCN(c4ccc(F)cc4)CC3)cc3c2N1CCC3	966
CCCCN1CCN(C(=O)c2cn(-c3cc(N4CCSCC4)ncn3)cn2)CC1	639
Cn1cc(-c2cc3n(n2)CCCN3C(=O)CCC(=O)NC2CCCCC2)c2ccccc21	837
CC(C)NC(=O)c1ccc(OCC2CCN(C(=O)c3cccs3)CC2)cc1	757
CCc1ccccc1NC(=O)N1CCCC(Cn2cnc3cccnc32)C1 (centres undefined)	719
C=CCn1c(=O)c2ccccc2n(Cc2nc(-c3ccc4c(c3)OCO4)no2)c1=O	998
COC1C(=O)N(CC2CC2)C12CCN(S(=O)(=O)c1cccc3cccnc13)CC2 (centres undefined)	790
CCc1cccc(N2C(=O)c3c(C(=O)OC)ncn3CC2(C)C(=O)NC2CCCC2)c1 (centres undefined)	615
Cc1ccccc1NC(=O)N1c2ccccc2NC2=C(C(=O)CCC2)C1c1ccco1 (centres undefined)	817
O=C(Cc1ccccc1F)NC1CCN(c2cc(-c3cccs3)[nH]n2)C1 (centres undefined)	705
O=S(=O)(NCc1ccc(Br)cc1)c1ccc2c(c1)-c1oncc1CO2	958
CCCCOc1ccc(-c2nc3ncccn3c2NC2CCCCC2)cc1	957
COc1nccnc1N1CCC(N(C)C(=O)Cc2ccsc2)C1 (centres undefined)	719
CCC(=O)Nc1cccn2nc(CC)nc12	657
CCn1cc(-c2nc(C(=O)Nc3ccc(F)c(F)c3)cs2)c2cccnc21	940
Cc1cccc(N(C)C(=O)Cn2c(=O)n(-c3cccc(C)c3)c(=O)c3c2cc(C)n3C)c1	752
COCn1c(-c2ccc(OC)c(OC)c2)nc2ccccc21	573

SMILES	RP-LC retention time [s]
Cc1ccc(S(=O)(=O)Nc2cccc(-c3cn4cccc(C)c4n3)c2)cc1	674
CCCn1c(=O)c(C)nc2cc(-c3noc(/C=C/c4ccc(OC)c(OC)c4)n3)ccc21	735
CS(=O)(=O)Nc1cccc(NC(=O)C2CCN(CC(=O)Nc3ccc(F)cc3)CC2)c1	564
COCCOCc1nc(C2CCN(C(=O)NC3CCCCC3)CC2)no1	709
CN1CCN(C(=O)CN2C(=O)C3CCCCN3c3ccc(S(=O)(=O)N4CCCC4)cc32)CC1 (centres undefined)	631
Cc1ccccc1N1CCN(CCc2nnc3n2CCCC3)CC1	573
Cc1ccc(N2CCC(NC(=O)Nc3cc(Cl)ccc3C)C2=O)cc1 (centres undefined)	956
Fc1cccc(Cc2noc(-c3nc(-c4ccccc4F)no3)n2)c1	1130
CCCS(=O)(=O)N1CCCC(Cn2c(C3CC3)nc3cccnc32)C1 (centres undefined)	658
Fc1ccc(F)c(CN2CC(Oc3ccc(-c4noc(-c5ccncc5)n4)cc3)C2)c1	726
N#Cc1cccc(CN2CCC(c3nncn3-c3ccccc3)CC2)c1	584
O=C(NCCCN1CCCCC1)C1CCN(c2cncnc2N2CCCCC2)CC1	569
Clc1cccc(-c2nc3ccc(Cl)cn3c2Nc2ccc3c(c2)OCO3)c1	978
COc1ccccc1CNC(=O)Cn1nc(C)c2sc(-c3ccccc3)nc2c1=O	884
O=C(Nc1ccc2c(c1)N(C(=O)c1ccco1)CC2)c1ccc2c(c1)OCO2	770
COc1cc(NC(=O)C2=Cc3cc(Br)ccc3OC2)cc(OC)c1OC	997
CCOC(=O)C1CCCN(c2ncc(S(=O)(=O)c3ccc(C)cc3)c(N)n2)C1 (centres undefined)	983
O=C(CCc1c[nH]c2ccccc12)N1CC(n2ccnc2)C1	588
